Results published in ChEMBL document CHEMBL1201862, “PubChem BioAssay data set” (2004).
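Where inhibition never reached the appropriate level, the endpoint shown equals the highest concentration tested. Otherwise, values were interpolated linearly from a five-concentration, 48-hour dose response in 96-well plates. GI50 is the concentration that inhibits growth by half.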 Activity calls are given as the source filed them. Rule as the data show it: active = GI50 up to about 1.1 µM and inactive = higher.

Experiments:
Experiment in all cases: DTP human tumour cell line panel, 48 h
SN12C = system: SN12C
OVCAR-8 = system: OVCAR-8
SF-539 = system: SF-539
SR = system: SR
CAKI-1 = system: CAKI-1
SK-MEL-2 = system: SK-MEL-2
SNB-75 = system: SNB-75
SK-MEL-5 = system: SK-MEL-5
UO-31 = system: UO-31
RXF 393 = system: RXF 393
HCT-15 = system: HCT-15
NCI-H522 = system: NCI-H522
A498 = system: A498
M14 = system: M14
NCI-H23 = system: NCI-H23
EKVX = system: EKVX
UACC-62 = system: UACC-62
NCI/ADR-RES = system: NCI/ADR-RES
SNB-19 = system: SNB-19
HL-60 = system: HL-60

With `Nc1ccccc1C(=O)N/N=C1\C(=O)Nc2ccccc21` the GI50 (SN12C) was > 100 µM (inactive), the GI50 (OVCAR-8) was > 100 µM (inactive) and the GI50 (SF-539) was > 100 µM (inactive). For the same compound, the GI50 (SR) was > 100 µM (inactive), the GI50 (CAKI-1) was > 100 µM (inactive) and the GI50 (SK-MEL-2) was > 100 µM (inactive). For the same compound, the GI50 (SNB-75) was 23.9 µM (inactive), the GI50 (SK-MEL-5) was > 100 µM (inactive) and the GI50 (UO-31) was > 100 µM (inactive). For the same compound, the GI50 (RXF 393) was 68.7 µM (inactive), the GI50 (HCT-15) was over 100 µM and the GI50 (NCI-H522) was 89.9 µM (inactive). For the same compound, the GI50 (A498) was 33.2 µM (inactive), the GI50 (M14) was > 100 µM (inactive) and the GI50 (NCI-H23) was 56.2 µM (inactive). For the same compound, the GI50 (EKVX) was > 100 µM (inactive), the GI50 (UACC-62) was > 100 µM (inactive) and the GI50 (NCI/ADR-RES) was > 100 µM (inactive). The GI50 (SNB-19) was 35.4 µM (inactive).
`COc1cc2cc(C(=O)N3CC(CCl)c4ccc(NO)cc43)[nH]c2c(OC)c1OC` (centres undefined) was tested, and the GI50 (HL-60) was 0.126 µM (active), the GI50 (SN12C) was 0.286 µM (active) and the GI50 (OVCAR-8) was 0.184 µM (active). For the same compound, the GI50 (SF-539) was 0.353 µM (active), the GI50 (SR) was 0.0577 µM (active) and the GI50 (CAKI-1) was 0.227 µM (active). For the same compound, the GI50 (SK-MEL-2) was 0.126 µM (active), the GI50 (SNB-75) was 0.177 µM (active) and the GI50 (SK-MEL-5) was 0.0984 µM (active). The GI50 (UO-31) was 0.0325 µM (active), the GI50 (RXF 393) was 0.114 µM (active) and the GI50 (HCT-15) was 0.243 µM. The GI50 (NCI-H522) was 0.0671 µM (active), the GI50 (A498) was 0.0675 µM (active) and the GI50 (M14) was 0.188 µM (active). For the same compound, the GI50 (NCI-H23) was 0.0693 µM (active), the GI50 (EKVX) was 0.35 µM (active) and the GI50 (UACC-62) was 0.0991 µM (active). The GI50 (NCI/ADR-RES) was 0.0723 µM (active) and the GI50 (SNB-19) was 0.264 µM (active).
For `COC(=O)C(F)C(Br)C(=O)OC` (centres undefined), the GI50 (HL-60) was 1.95 µM (inactive), the GI50 (SN12C) was 16.9 µM (inactive) and the GI50 (OVCAR-8) was 3.63 µM (inactive). For the same compound, the GI50 (SF-539) was 5.48 µM (inactive), the GI50 (SR) was 1.37 µM (inactive) and the GI50 (CAKI-1) was 2.35 µM (inactive). The GI50 (SK-MEL-2) was 16.1 µM (inactive), the GI50 (SNB-75) was 12.3 µM (inactive) and the GI50 (SK-MEL-5) was 18.5 µM (inactive). The GI50 (UO-31) was 1.89 µM (inactive), the GI50 (RXF 393) was 2.18 µM (inactive) and the GI50 (HCT-15) was 1.82 µM. For the same compound, the GI50 (NCI-H522) was 1.43 µM (inactive), the GI50 (A498) was 20.9 µM (inactive) and the GI50 (M14) was 5.79 µM (inactive). The GI50 (NCI-H23) was 6.03 µM (inactive), the GI50 (EKVX) was 2.19 µM (inactive) and the GI50 (UACC-62) was 15.9 µM (inactive). For the same compound, the GI50 (NCI/ADR-RES) was 2.94 µM (inactive) and the GI50 (SNB-19) was 30.7 µM (inactive).
For `C[C@H]1S[C@@H](c2ccc(Cl)cc2Cl)N(NC(=O)c2ccncc2)C1=O`, the GI50 (HL-60) was 98.4 µM (inactive), the GI50 (SN12C) was 71.3 µM (inactive) and the GI50 (OVCAR-8) was > 100 µM (inactive). The GI50 (SR) was 79.4 µM (inactive), the GI50 (CAKI-1) was 56.2 µM (inactive) and the GI50 (SK-MEL-2) was 27.3 µM (inactive). The GI50 (SNB-75) was 80.5 µM (inactive), the GI50 (SK-MEL-5) was 44.8 µM (inactive) and the GI50 (UO-31) was 37 µM (inactive). The GI50 (RXF 393) was 25.4 µM (inactive), the GI50 (HCT-15) was 47.9 µM and the GI50 (NCI-H522) was 37.8 µM (inactive). For the same compound, the GI50 (A498) was > 100 µM (inactive), the GI50 (M14) was 61.8 µM (inactive) and the GI50 (NCI-H23) was 50.4 µM (inactive). For the same compound, the GI50 (UACC-62) was 29.6 µM (inactive), the GI50 (NCI/ADR-RES) was 21.7 µM (inactive) and the GI50 (SNB-19) was 62.4 µM (inactive).
For `O=C1CSC(/C=C/c2ccccc2)N1c1nc2cc3sc(N4C(=O)CSC4/C=C/c4ccccc4)nc3cc2s1` (centres undefined), the GI50 (HL-60) was 68.1 µM (inactive), the GI50 (SN12C) was 18.3 µM (inactive) and the GI50 (OVCAR-8) was > 100 µM (inactive). For the same compound, the GI50 (SF-539) was 2.83 µM (inactive), the GI50 (SR) was 14.6 µM (inactive) and the GI50 (CAKI-1) was 53 µM (inactive). The GI50 (SK-MEL-2) was 33.6 µM (inactive), the GI50 (SNB-75) was 73.8 µM (inactive) and the GI50 (SK-MEL-5) was > 46.5 µM (inactive). For the same compound, the GI50 (UO-31) was > 51.5 µM (inactive), the GI50 (RXF 393) was > 100 µM (inactive) and the GI50 (HCT-15) was over 34.1 µM. For the same compound, the GI50 (NCI-H522) was 6.97 µM (inactive), the GI50 (A498) was > 100 µM (inactive) and the GI50 (M14) was > 100 µM (inactive). The GI50 (NCI-H23) was > 48.3 µM (inactive), the GI50 (EKVX) was 13.2 µM (inactive) and the GI50 (UACC-62) was > 100 µM (inactive). The GI50 (NCI/ADR-RES) was > 87.1 µM (inactive) and the GI50 (SNB-19) was > 84.5 µM (inactive).
In the case of `COc1cc(/C=C2\N=C(c3ccccc3)N(C3Nc4cc5c(cc4S3)NC(N3C(=O)/C(=C/c4cc(OC)c(OC)c(OC)c4)N=C3c3ccccc3)S5)C2=O)cc(OC)c1OC` (centres undefined), the GI50 (HL-60) was 65.9 µM (inactive), the GI50 (OVCAR-8) was 83.9 µM (inactive) and the GI50 (SF-539) was 42 µM (inactive). The GI50 (SR) was 20.5 µM (inactive), the GI50 (CAKI-1) was 39.9 µM (inactive) and the GI50 (SK-MEL-2) was > 100 µM (inactive). The GI50 (SNB-75) was > 100 µM (inactive), the GI50 (SK-MEL-5) was 64.9 µM (inactive) and the GI50 (UO-31) was 54.1 µM (inactive). For the same compound, the GI50 (RXF 393) was > 100 µM (inactive), the GI50 (HCT-15) was 57.5 µM and the GI50 (NCI-H522) was 60.3 µM (inactive). For the same compound, the GI50 (A498) was 68.4 µM (inactive), the GI50 (M14) was > 100 µM (inactive) and the GI50 (NCI-H23) was 94.6 µM (inactive). For the same compound, the GI50 (EKVX) was 44.1 µM (inactive) and the GI50 (NCI/ADR-RES) was 38.5 µM (inactive).
